From US7608585B2, “Compositions for inhibition of necrosis induced by a neurotrophin” (Neurotech Pharmaceuticals Co., Ltd., priority 2004, dated 2009)
Like-named read-outs stand apart in the source and are kept apart here.

Assays:
ROS in cortical neurons = experiment: ROS imaging by oxidized DCDHF-DA (DCF) and hydroethidine fluorescence; type: cell-based, Rat; settings: for BDNF-induced production of [ROS]i: concurrent addition with 100 ng/ml BDNF, 32 hr
Description: Cortical cell cultures (DIV 12-15) grown on glass bottom dishes were loaded with 10 μM dichlorodihydro fluorescein diacetate (DCDHF-DA) or 5 μM hydroethidium (Molecular Probes, Eugene, Oreg.) plus 2% Pluronic F-127 in HEPES-buffered control salt solution (HCSS) buffer containing (in mM): 120 NaCl, 5 KCl, 1.6 MgCl2, 2.3 CaCl2, 15 glucose, 20 HEPES, and 10 NaOH. Cultures were incubated for 20 min at 37° C., and washed three times with HCSS buffer. […] The fluorescence images were analyzed using a QuantiCell 700 system (Applied imaging, UK).
Superoxide production through activation of NADPH oxidase was analyzed by measuring the oxidation of HEt and DCDHF to ethidium and DCF, respectively, in cortical neurons after exposure to a sham operation, 100 ng/ml BDNF, or 100 ng/ml BDNF plus 3 nM DPI for 32 hr (FIG. 15).

[1] = test system: BDNF-induced neuronal death in cortical cell cultures; experiment: Protection against BDNF-induced neuronal death, LDH efflux; type: cell-based, Rat; settings: for BDNF neurotoxicity / BDNF-induced neuronal cell necrosis (LDH efflux): 100 ng/ml BDNF, 36 hr, 100 μg/ml anti-BDNF antibody, 100 μM trolox, 1 μg/ml cycloheximide; for Swelling of neuronal cell body and neuronal death: 36 hr after exposure to BDNF, 3-10 nM DPI, 10-30 μM AEBSF
Description: Cortical cell cultures (DIV 12-15) were exposed to 100 ng/ml BDNF, alone or in the presence NADPH oxidase inhibitors, 3-10 nM DPI, 10-30 μM 4-(2-amonoethyl)-benzensulfonyl fluoride (AEBSF), or 1 μM 2-Hydroxy-TTBA ((2-Hydroxy-5-(2,3,5,6-tetrafluoro-4-trifluoromethyl-benzylamino)-benzoic acid). Neuronal death was analyzed 36 hr later by measurement of LDH efflux into the bathing medium.

[2] = test system: Neuron-rich cortical cell cultures; experiment: Serum deprivation-induced neuronal apoptosis, counting viable neurons; type: cell-based, Rat; settings: for Anti-apoptotic action of BDNF on inclusion of the substance: 100 ng/ml BDNF plus 3 nM DPI or 100 μM trolox; for Serum deprivation-induced neuronal apoptosis: alone, without BDNF; for Serum deprivation-induced neuronal apoptosis / Delayed neuronal death evolving in the presence of BDNF: 3 nM DPI, 100 μM trolox; for Delayed neuronal death evolving in the presence of BDNF: concurrent addition, 48 hr
Description: (§1) For neuron-glia mixed cultures, 10 μM cytosine arabinoside (Ara C) was included to stop the overgrowth of non-neuronal cells to cultures at DIV 5-7 when glial cells were confluent underneath neurons. After 2 days, cultures were then fed with plating medium lacking fetal serum twice a week. Cultures were maintained at 37° C. in a humidified 5% CO2 incubator. For neuron-rich cultures (>95%), 2.5 μM Ara C was included to cultures at 2-3 days in vitro (DIV 2-3) as previously described (Gwag et al., 1997).
(§2) Mixed cortical cell cultures (DIV 12-14) were rinsed in serum free MS (MEM supplemented with 26.5 mM sodium bicarbonate and 21 mM glucose) and then exposed to various concentrations of NGF, BDNF or NT-3 in serum free MS. Neuronal cell death was analyzed by measuring the level of lactate dehydrogenase (LDH) released into the bathing medium. The percent neuronal death was normalized to the mean LDH value released after a sham control (defined as 0%) or continuous exposure to 500 μM NMDA for 24 hr (defined as 100%) The latter produces complete neuronal death within 24 hr. For experiments for serum deprivation, neuron-rich cortical cell cultures (DIV 7) were placed into serum free MS containing 1 μM MK-801 as described (Gwag et al., 1995). Neuronal death was analyzed 24 and 48 hr later by counting viable neurons excluding Trypan Blue satained.
Neuron-rich cortical cell cultures (DIV 7) were deprived of serum, alone (serum deprivation) or in the presence of 100 ng/ml BDNF, 100 ng/ml BDNF plus 3 nM DPI, 3 nM DPI, 100 ng/ml BDNF plus 100 μM trolox, or 100 μM trolox. Neuronal death was assessed 24 hr and 48 hr later by counting viable neurons.

[3] = test system: free radical neurotoxicity; settings: as anti-oxidants; cited from earlier work
[4] = test system: Mixed cortical cell cultures; type: cell-based, Rat
Description: Rat cortical cell cultures were prepared from the 17-day-old fetal brain and the neocortices were mechanically triturated as previously described (Noh and Gwag, 1997). Dissociated cells were plated on 6-well plates and 24-well plates (approximately 3 cortices per plate), or on glass bottom 35 mm dishes for ROS imaging. Plating media consist of Eagle's minimal essential media (MEM, Earle's salts, supplied glutamine-free) supplemented with 5% horse serum, 5% fetal bovine serum, 21 mM glucose, 26.5 mM bicarbonate and 2 mM L-glutamine.
as §1
To examine if neurotrophins would induce neuronal necrosis, BDNF-induced neuronal death was analyzed by measuring the level of lactate dehydrogenase (LDH) released into the bathing medium.
as §2
Neuronal cell death was assessed by measurement of LDH efflux to the bathing medium, mean±SEM (n=16 culture wells per condition). *, Significant difference from the relevant control (sham washed control), at P<0.05 using analysis of variance and Student-Newman-Keuls test.

cortical neurons = type: cell-based
Description: To examine the patterns of BDNF-induced neuronal death, we observed neurons from 32 hrs after a sham wash or continuous exposure to 100 ng/ml BDNF under phase contrast or transmission electron microscope.
Cultures were fixed in Karnovskys fixative solution (1% paraformaldehyde, 2% glutaraldehyde, 2 mM calcium cholride, 100 mM cacodylate buffer, pH 7.4) for 2 hr, washed with cacodylate buffer, and post-fixed in 1% osmium tetroxide and 1.5% potassium ferrocyanide for 1 hr. Cells were then stained en bloc in 0.5% uranyl acetate, dehydrated through graded ethanol series, and embedded in Poly/Bed 812 resin (Pelco, Calif.). Cells were sectioned using Reichert Jung Ultracut S (Leica, Cambridge, UK). After staining cells with uranyl acetate and lead citrate, cells were observed and photographed under Zeiss EM 902A.

[5] = 36 hr after 100 ng/ml BDNF, 3 nM DPI, 10 μM AEBSF, 1 μM 2-Hydroxy-TTBA

Molecule: C[C@@H]1C[C@@H]([C@H](O)CC2CC(=O)NC(=O)C2)C(=O)[C@@H](C)C1 [cycloheximide, reference compound]
- BDNF-induced production of [ROS]i (ROS in cortical neurons): prevented
- BDNF neurotoxicity / BDNF-induced neuronal cell necrosis (LDH efflux) [1]: blocked

Molecule: NCCc1ccc(S(=O)(=O)F)cc1 [AEBSF, 4-(2-amonoethyl)-benzensulfonyl fluoride]
- Neuronal necrosis (LDH efflux) [1, 5]: significantly reduced
- Swelling of neuronal cell body and neuronal death [1]: significantly reduced

Molecule: Cc1c(C)c2c(c(C)c1O)CCC(C)(C(=O)O)O2 (stereo not shown) [trolox]
- Anti-apoptotic action of BDNF on inclusion of the substance [2]: insensitive
- Serum deprivation-induced neuronal apoptosis [2]: Neither DPI nor trolox alone reduced
- Delayed neuronal death evolving in the presence of BDNF [2]: attenuated
- BDNF-induced production of [ROS]i (ROS in cortical neurons): prevented
- BDNF neurotoxicity / BDNF-induced neuronal cell necrosis (LDH efflux) [1]: blocked

Molecule: O=C(O)c1cc(NCc2c(F)c(F)c(C(F)(F)F)c(F)c2F)ccc1O [2-Hydroxy-TTBA, 2-Hydroxy-5-(2,3,5,6-tetrafluoro-4trifluoromethyl-benzylamino)-benzoic acid]
- Free radical neurotoxicity [3]: block free radical neurotoxicity
- Neuronal necrosis (LDH efflux) [1, 5]: significantly reduced

Molecule: COc1ccc(CNc2ccc(O)c(C(=O)O)c2)cc1 [MBAS]
- Free radical neurotoxicity [3]: block free radical neurotoxicity

Molecule: O=C(O)c1cc(NCc2ccc(F)cc2)ccc1O [FBAS, 5-(4-fluorobenxyl) aminosalicylic acid]
- Free radical neurotoxicity [3]: block free radical neurotoxicity

Molecule: NT-3: neurotrophin-3, a neurotrophin
- Cell necrosis induced by neurotrophin [4]: derives cell necrosis
- Neuronal death (LDH efflux to the bathing medium) [4]: Near complete neuronal death

Molecule: c1ccc2c(c1)[I+]c1ccccc1-2 [DPI, diphenylene iodonium]
- Anti-apoptotic action of BDNF on inclusion of the substance [2]: insensitive
- Serum deprivation-induced neuronal apoptosis [2]: Neither DPI nor trolox alone reduced
- Delayed neuronal death evolving in the presence of BDNF [2]: attenuated
- BDNF-induced superoxide production (oxidation of HEt and DCDHF) (ROS in cortical neurons): completely blocked
- Neuronal necrosis (LDH efflux) [1]: significantly reduced
- Swelling of neuronal cell body and neuronal death [1]: significantly reduced

B1: NT-4/5: a neurotrophin (protein, UniProt P34130 81-210, looked up)
Neurotrophin-4: GVSETAPASRRGELAVCDAVSGWVTDRRTAVDLRGREVEVLGEVPAAGGSPLRQYFFETRCKADNAEEGGPGAGGGGCRGVDRRHWVSECKAKQSYVRALTADAQGRVGWRWIRIDTACVCTLLSRTGRA
- Cell necrosis induced by neurotrophin [4]: derives cell necrosis

B2: BDNF: brain-derived neurotrophic factor, a neurotrophin (protein, UniProt P23560 19-247, looked up)
Neurotrophic factor BDNF …: APMKEANIRGQGGLAYPGVRTHGTLESVNGPKAGSRGLTSLADTFEHVIEELLDEDQKVRPNEENNKDADLYTSRVMLSSQVPLEPPLLFLLEEYKNYLDAANMSMRVRRHSDPARRGELSVCDSISEWVTAADKKTAVDMSGGTVTVLEKVPVSKGQLKQYFYETKCNPMGYTKEGCRGIDKRHWNSQCRTTQSYVRALTMDSKKRIGWRFIRIDTSCVCTLTIKRGR
- Cell necrosis induced by neurotrophin [4]: derives cell necrosis
- Neuronal death (LDH efflux to the bathing medium) [4]: Near complete neuronal death
- Pattern of neuronal death under transmission electron microscope (cortical neurons): induced neuronal necrosis
